Measured values from patent US7169789B2 (Kirin Beer Kabushiki Kaisha, priority 1999, dated 2007).
pIC50: −log10 of the molar value.

Experiments:
Human glioma cells GL07 = experiment: Antitumor effect on human glioma cells (GL07) transplanted into nude mice; type: in vivo; conditions: GL07, oral, 20 mg/kg once a day for 9 days; for inhibition in vivo at 20 mg/kg: Mus musculus, Glioma cell, 216 h, read-out: TGIR, % (tumor growth inhibition rate)
Experimental: Antitumor Effect on Human Glioma Cells (GL07)
Human glioma cells GL07 (obtained from Central Laboratories for Experimental Animals) were transplanted into nude mice. When the tumor volume became about 100 mm^3, the mice were grouped. In this case, grouping was carried out so that each group consisted of four mice and the average tumor volume was even among the groups. The test compound was orally or intraperitoneally administered at a dose of 20 mg/kg to the test groups every day once a day for 9 days, while the medium was administered to the control group in the manner as in the test groups. The tumor growth inhibition rate (TGIR) was calculated as follows: The tumor growth inhibition rate (TGIR)=(1−Tx/Cx)×100 wherein Cx represents the volume of tumor at day x for the control group when the tumor volume at the day of the start of the administration was presumed to be 1; and Tx represents the volume of tumor for test compound administration groups.

human KDR = molecular target: T1, human KDR (Homo sapiens, UniProt P35968); experiment: Inhibitory activity against KDR phosphorylation by ELISA; type: cell-based; conditions: NIH 3T3 cells transfected with human KDR, VEGF 100 ng/ml
T1 construct: expressed in transfected cells; host or cells: NIH 3T3 cells (Sawano A et al., Cell Growth & Differentiation 7, 213-221 (1996))
Experimental: Measurement of Inhibitory Activity Against KDR Phosphorylation by ELISA
NIH 3T3 cells (Sawano A et al., Cell Growth & Differentation, 7, 213–221 (1996), “Flt-1 but not KDR/Flk-1 tyrosine kinase is a receptor for placenta growth factor, which is related to vascular endothelial growth factor”) prepared by transfection of human KDR were cultured in a DMEM medium containing 10% fetal calf serum (purchased from GIBCO BRL) within a 5% carbon dioxide incubator until 50 to 70% confluent. The harvested cells were inoculated into wells, containing the same medium, in a collagen-type one-coat 96-well flat-bottom plate in an amount of 1.5×10^4 per well, followed by cultivation at 37° C. overnight. The medium was then replaced by a DMEM medium containing 0.1% fetal calf serum. A solution of the test compound in dimethyl sulfoxide was added to each well, and the cultivation was continued at 37° C. for additional one hr. A human recombinant vascular endothelial growth factor (hereinafter abbreviated to “VEGF”) was added to a final concentration of 100 ng/ml, and the stimulation of cells was carried out at 37° C. for 2 min. The medium was removed, the cells were washed with phosphate buffered saline (pH 7.4), and 50 μl of a solubilization buffer (20 mM HEPES (pH 7.4), 150 mM NaCl, 0.2% Triton X-100, 10% glycerol, 5 mM sodium orthovanadylate, 5 mM disodium ethylenediaminetetraacetate, and 2 mM Na4P2O7) was then added thereto. The mixture was shaken at 4° C. for 2 hr to prepare a cell extract.
Separately, phosphate buffered saline (50 μl, pH 7.4) containing […] of anti-phospho-tyrosine antibody (PY20; purchased from Transduction Laboratories) was added to a microplate for ELISA (Maxisorp; purchased from NUNC), followed by standing at 4° C. overnight to form a solid phase on the wells. After washing of the plate, 300 μl of a blocking solution was added, followed by standing at room temperature for 2 hr to perform blocking. After washing, the whole quantity of the cell extract was transferred to the wells, and the plate was then allowed to stand at 4° C. overnight. After washing, an anti-KDR antibody (purchased from Santa Cruz) was allowed to react at room temperature for one hr, and, after washing, a peroxidase-labeled anti-rabbit Ig antibody (purchased from Amersham) was allowed to react at room temperature for one hr. After washing, a chromophoric substrate for peroxidase (purchased from Sumitomo Bakelite Co., Ltd.) was added thereto to initiate a reaction. After a suitable level of color development, a reaction termination solution was added to stop the reaction, and the absorbance at 450 nm was measured with a microplate reader. The KDR phosphorylation activity for each well was determined by presuming the absorbance with the addition of VEGF and without the addition of the medicament to be 100% KDR phosphorylation activity and the absorbance without the medicament and VEGF to be 0% KDR phosphorylation activity. The concentration of the test compound was varied on several levels, the inhibition (%) of KDR phosphorylation was determined for each case, and the concentration of the test compound necessary for inhibiting 50% of KDR phosphorylation (IC50) was calculated.

T1 sequence (P35968 20-1356): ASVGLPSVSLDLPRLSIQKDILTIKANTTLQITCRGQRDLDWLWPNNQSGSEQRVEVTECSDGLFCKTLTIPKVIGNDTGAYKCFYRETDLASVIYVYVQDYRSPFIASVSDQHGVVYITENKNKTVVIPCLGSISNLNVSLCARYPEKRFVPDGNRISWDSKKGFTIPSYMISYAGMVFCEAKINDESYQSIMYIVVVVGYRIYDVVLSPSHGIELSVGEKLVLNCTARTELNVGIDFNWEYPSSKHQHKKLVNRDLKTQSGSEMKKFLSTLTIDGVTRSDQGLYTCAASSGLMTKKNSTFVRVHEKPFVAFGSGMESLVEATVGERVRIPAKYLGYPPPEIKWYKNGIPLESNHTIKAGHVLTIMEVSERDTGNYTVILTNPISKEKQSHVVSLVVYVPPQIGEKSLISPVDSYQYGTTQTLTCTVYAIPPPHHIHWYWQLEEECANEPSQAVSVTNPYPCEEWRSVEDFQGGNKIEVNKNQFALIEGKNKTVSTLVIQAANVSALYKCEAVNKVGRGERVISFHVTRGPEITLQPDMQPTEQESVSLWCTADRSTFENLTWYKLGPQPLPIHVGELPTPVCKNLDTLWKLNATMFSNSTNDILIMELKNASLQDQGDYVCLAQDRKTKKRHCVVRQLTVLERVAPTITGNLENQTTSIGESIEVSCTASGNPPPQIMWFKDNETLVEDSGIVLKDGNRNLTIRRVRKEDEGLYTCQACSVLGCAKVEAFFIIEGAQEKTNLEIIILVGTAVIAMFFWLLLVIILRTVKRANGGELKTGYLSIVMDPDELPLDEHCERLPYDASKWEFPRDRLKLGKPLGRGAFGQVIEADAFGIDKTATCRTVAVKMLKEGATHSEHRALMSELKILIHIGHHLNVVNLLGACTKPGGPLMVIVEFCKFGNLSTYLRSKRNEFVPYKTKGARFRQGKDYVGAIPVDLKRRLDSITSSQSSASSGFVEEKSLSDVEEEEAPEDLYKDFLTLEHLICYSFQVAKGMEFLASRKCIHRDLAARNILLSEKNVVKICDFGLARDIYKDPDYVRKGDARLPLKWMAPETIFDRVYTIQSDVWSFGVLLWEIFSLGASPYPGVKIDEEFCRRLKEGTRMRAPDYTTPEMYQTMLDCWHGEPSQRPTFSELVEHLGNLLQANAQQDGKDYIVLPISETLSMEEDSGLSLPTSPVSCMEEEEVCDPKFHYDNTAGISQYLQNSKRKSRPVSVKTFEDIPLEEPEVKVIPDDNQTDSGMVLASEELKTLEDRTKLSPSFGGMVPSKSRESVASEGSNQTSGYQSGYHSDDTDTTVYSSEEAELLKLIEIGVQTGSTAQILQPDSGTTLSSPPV

pIC50 (human KDR) | Structure (SMILES) | inhibition in vivo at 20 mg/kg (Human glioma cells GL07) [%] | TGIR, % (tumor growth inhibition rate) (Human glioma cells GL07) [%]
– | CCCNC(=O)Nc1ccc(Oc2ccnc3cc(OCCCN4CCOCC4)c(OC)cc23)cc1OC [Example 173, N-(2-Methoxy-4-{[6-methoxy-7-(3-morpholinopropoxy)-4-quinolyl]oxy}phenyl)-N′-propylurea] | 21 | –
8.44 | CCCNC(=O)Nc1ccc(Oc2ncnc3cc(OCCCN4CCOCC4)c(OC)cc23)cc1Cl [Example 119, N-(2-chloro-4-{[6-methoxy-7-(3-morpholinopropoxy)-4-quinazolinyl]oxy}phenyl)-N′-propylurea] | 40 | –
8.30 | CCCCNC(=O)Nc1ccc(Oc2ncnc3cc(OC)c(OC)cc23)cc1[N+](=O)[O-] [Example 108, N-Butyl-N′-{4-[(6,7-dimethoxy-4-quinazolinyl)oxy]-2-nitrophenyl}urea] | – | –
8.96 | COc1cc2c(Oc3ccc(NC(=O)Nc4ccc(F)cc4F)c(Cl)c3)ccnc2cc1OCCn1ccnn1 [Example 170, N-[2-chloro-4-(6-methoxy-7-{[2-(1H-1,2,3-triazol-1-yl)ethoxy]-4-quinolyl}oxy)phenyl]-N′-(2,4-difluorophenyl)urea] | – | 64
9.00 | COc1cc2c(Oc3ccc(NC(=O)Nc4ccc(F)cc4F)c(Cl)c3)ncnc2cc1OCCN1CCOCC1 [Example 162, N-(2-chloro-4-{[6-methoxy-7-(2-morpholinoethoxy)-4-quinazolinyl]oxy}phenyl)-N′-(2,4-difluorophenyl)urea] | 40 | –
8.72 | CCCNC(=O)Nc1ccc(Oc2ncnc3cc(OCCCCCN4CCOCC4)c(OC)cc23)cc1Cl [Example 124, N-[2-Chloro-4-({6-methoxy-7-[(5-morpholinopentyl)oxy]-4-quinazolinyl}oxy)phenyl]-N′-propylurea] | 27 | –
8.39 | C#CCNC(=O)Nc1ccc(Oc2ncnc3cc(OC)c(OC)cc23)cc1Cl [Example 81, N-{2-Chloro-4-[(6,7-dimethoxy-4-quinazolinyl)oxy]phenyl}-N′-(2-propynyl)urea] | – | –
– | CCCNC(=O)Nc1ccc(Oc2ccnc3cc(OCc4ccncc4)c(OC)cc23)cc1OC [Example 174, N-(2-Methoxy-4-{[6-methoxy-7-(4-pyridylmethoxy)-4-guinolyl]oxy}phenyl)-N′-propylurea] | – | 19
9.05 | COc1cc2c(Oc3ccc(NC(=O)Nc4ccc(F)cc4F)c(Cl)c3)ncnc2cc1OCCCN1CCN(C)CC1 [Example 164, N-[2-chloro-4-(6-methoxy-7-{[3-(4-methylpiperazino)propoxy]-4-quinazolinyl}oxy)phenyl]-N′-(2,4-difluorophenyl)urea] | – | 55
< 6.00 | CCCN(CC)C(=O)Nc1ccc(Oc2ncnc3cc(OC)c(OC)cc23)cc1Cl [Example 112, N′-{2-Chloro-4-[(6,7-dimethoxy-4-quinazolinyl)oxy]phenyl}-N-ethyl-N-propylurea] | 81 | –
8.82 | CCCNC(=O)Nc1ccc(Oc2ccnc3cc(OCCCn4ccnn4)c(OC)cc23)cc1Cl [Example 153, N-[2-chloro-4-(6-methoxy-7-{[3-(1H-1,2,3-triazol-1-yl)propoxy]-4-quinolyl}oxy)phenyl]-N′-propylurea] | 53 | –
8.08 | CCCNC(=O)Nc1ccc(Oc2ncnc3cc(OCCCSc4ccncc4)c(OC)cc23)cc1Cl [Example 133, N-[2-Chloro-4-({6-methoxy-7-[3-(4-pyridylthio)propoxy]-4-quinazolinyl}oxy)phenyl]-N′-propylurea] | 20 | –
– | CCCNC(=O)Nc1ccc(Oc2ncnc3cc(OCCN4CCN(C)CC4)c(OC)cc23)cc1Cl [Example 128, N-[2-Chloro-4-({6-methoxy-7-[2-(4-methylpiperazino)ethoxy]-4-quinazolinyl}oxy)phenyl]-N′-propylurea] | 21 | –
– | CCCNC(=O)Nc1ccc(Oc2ncnc3cc(OCCCN4CCN(C)CC4)c(OC)cc23)cc1Cl [Example 130, N-[2-Chloro-4-({6-methoxy-7-[3-(4-methylpiperazino)propoxy]-4-quinazolinyl}oxy)phenyl]-N′-propylurea] | 32 | –
7.62 | CNC(=O)Nc1ccc(Oc2ncnc3cc(OC)c(OC)cc23)cc1Cl [Example 117, N-{2-chloro-4-[(6,7-dimethoxy-4-quinazolinyl)oxy]phenyl}-N′-methylurea] | – | –
– | CCCNC(=O)Nc1ccc(Oc2ncnc3cc(OCCCN4CCOCC4)c(OC)cc23)cc1OC [Example 171, N-(2-Methoxy-4-{[6-methoxy-7-(3-morpholinopropoxy)-4-quinazolinyl]oxy}phenyl)-N′-propylurea] | 13 | –
< 6.00 | COc1cc2ncnc(Oc3ccc(NC(=O)N(C)C)c(Cl)c3)c2cc1OC [Example 118, N′-{2-Chloro-4-[(6,7-dimethoxy-4-quinazolinyl)oxy]phenyl}-N,N-dimethylurea] | – | –
– | CCCNC(=O)N(COC)c1ccc(Oc2ncnc3cc(OC)c(OC)cc23)cc1Cl [Example 109, N-{2-Chloro-4-[(6,7-dimethoxy-4-quinazolinyl)oxy]phenyl}-N-methoxymethyl-N′-propylurea] | 71 | –
– | CCCNC(=O)Nc1ccc(Oc2ncnc3cc(OCCN(C)CCO)c(OC)cc23)cc1Cl [Example 129, N-{2-Chloro-4-[(7-{2-[(2-hydroxyethyl)-(methyl)amino]ethoxy}-6-methoxy-4-quinazolinyl)oxy]-phenyl}-N′-propylurea] | 25 | –
– | COc1cc(Oc2ncnc3cc(OCCCN4CCOCC4)c(OC)cc23)ccc1NC(=O)Nc1ccc(F)cc1F [Example 172, N-(2,4-Difluorophenyl)-N′-(2-methoxy-4-{[6-methoxy-7-(3-morpholinopropoxy)-4-quinazolinyl]oxy}-phenyl)urea] | 42 | –
7.21 | CCCNC(=O)Nc1ccc(Oc2ncnc3cc(OC)c(OC)cc23)cc1F [Example 88, N-{4-[(6,7-Dimethoxy-4-quinazolinyl)oxy]-2-fluorophenyl}-N′-propylurea] | – | –
– | COc1cc2c(Oc3ccc(NC(=O)Nc4ccc(F)cc4F)c(Cl)c3)ccnc2cc1OCCN1CCOCC1 [Example 51, N-(2-chloro-4-{[6-methoxy-7-(2-morpholinoethoxy)-4-quinolyl]oxy}phenyl)-N′-(2,4-difluorophenyl)urea] | 65 | –

Structure (SMILES) | pIC50 (human KDR) | inhibition in vivo at 20 mg/kg (Human glioma cells GL07) [%] | TGIR, % (tumor growth inhibition rate) (Human glioma cells GL07) [%]
CCCNC(=O)Nc1ccc(Oc2ccnc3cc(OCCCCn4ccnn4)c(OC)cc23)cc1Cl [Example 158, N-[2-Chloro-4-({6-methoxy-7-[4-(1H-1,2,3-triazol-1-yl)butoxy]-4-guinolyl}oxy)phenyl]-N′-propylurea] | 8.80 | 39 | –
CCCNC(=O)Nc1ccc(Oc2ncnc3cc(OCCCCN4CCOCC4)c(OC)cc23)cc1Cl [Example 127, N-(2-Chloro-4-{[6-methoxy-7-(4-morpholinobutoxy)-4-quinazolinyl]oxy}phenyl)-N′-propylurea] | 8.96 | 25 | –
CCCNC(=O)Nc1ccc(Oc2ccnc3cc(OCCCCn4ccnc4)c(OC)cc23)cc1Cl [Example 160, N-[2-chloro-4-(7-{[4-(1H-1-imidazolyl)-butoxy]-6-methoxy-4-quinolyl}oxy)phenyl]-N′-propylurea] | 9.05 | – | 43
